# Data taken from PubChem BioAssay (NCI).
#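 Abbreviation: GI50, concentration required for 50% inhibition of growth. The concentration for full growth arrest is given as TGI.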
# What was measured:
# Experiment in all cases: inhibition of tumour cell growth, NCI panel, 384-well format
# [1] = tested on: CCRF-CEM leukemia
# [2] = tested on: SK-MEL-5 melanoma
# [3] = tested on: A498 renal
# [4] = tested on: HL-60(TB) leukemia
# [5] = tested on: HOP-92 NSCLC
# [6] = tested on: SF-295 CNS
# [7] = tested on: DU-145 prostate
# [8] = tested on: HOP-62 NSCLC
# [9] = tested on: LOX IMVI melanoma
# [10] = tested on: NCI-H322M lung
# [11] = tested on: A549 NSCLC
# [12] = tested on: TK-10 renal
# [13] = tested on: OVCAR-8 ovarian
# [14] = tested on: SK-MEL-28 melanoma
# [15] = tested on: MALME-3M melanoma
# [16] = tested on: HS 578T breast
# [17] = tested on: OVCAR-5 ovarian
# [18] = tested on: NCI-H522 lung
# [19] = tested on: M14 melanoma
# [20] = tested on: KM12 colon
# [21] = tested on: NCI-H226 lung
# [22] = tested on: IGROV1 ovarian
# [23] = tested on: RXF 393 renal
# [24] = tested on: SF-539 CNS
# [25] = tested on: OVCAR-4 ovarian
# [26] = tested on: SNB-75 CNS
# [27] = tested on: ACHN renal
# [28] = tested on: MDA-MB-231 breast
# [29] = tested on: SF-268 CNS
# [30] = tested on: MCF7 breast
# [31] = tested on: HT29 colon
# [32] = tested on: SW-620 colon
# [33] = tested on: PC-3 prostate
# [34] = tested on: CAKI-1 renal
# [35] = tested on: SK-OV-3 ovarian
# [36] = tested on: SNB-19 CNS
# [37] = tested on: SN12C renal
# [38] = tested on: BT-549 breast
# [39] = tested on: MDA-MB-468 breast
# [40] = tested on: HCT-15 colon
# [41] = tested on: K-562 leukemia
# [42] = tested on: COLO 205 colon
# [43] = tested on: MOLT-4 leukemia
# [44] = tested on: NCI-H460 NSCLC
# [45] = tested on: 786-0 renal
# [46] = tested on: RPMI-8226 leukemia
# [47] = tested on: SR leukemia
# [48] = tested on: OVCAR-3 ovarian
# [49] = tested on: UACC-257 melanoma
# [50] = tested on: HCC-2998 colon
# [51] = tested on: UO-31 renal
# [52] = tested on: UACC-62 melanoma
# [53] = tested on: EKVX NSCLC
# [54] = tested on: NCI/ADR-RES ovarian
# [55] = tested on: U251 glioblastoma
# [56] = tested on: NCI-H23 lung
# [57] = tested on: MDA-MB-435 melanoma
# [58] = tested on: T-47D breast
structure (smiles),measurement,setting,value
CCN1C(=O)CCCc2c1ccc(Nc1ncc(Cl)c(NC3[C@@H](C(N)=O)[C@@H]4C=C[C@H]3C4)n1)c2OC (stereo partly specified),GI50,[1],220 nM
same,TGI,[1],402 nM
same,GI50,[2],578 nM
same,TGI,[2],1950 nM
same,GI50,[3],1770 nM
same,TGI,[3],11500 nM
same,GI50,[4],254 nM
same,TGI,[4],532 nM
same,GI50,[5],665 nM
same,TGI,[5],3990 nM
same,GI50,[6],812 nM
same,TGI,[6],8310 nM
same,GI50,[7],577 nM
same,TGI,[7],2800 nM
same,GI50,[8],644 nM
same,TGI,[8],2990 nM
same,GI50,[9],334 nM
same,TGI,[9],1200 nM
same,GI50,[10],1900 nM
same,TGI,[10],5610 nM
same,GI50,[11],366 nM
same,TGI,[11],2550 nM
same,GI50,[12],1300 nM
same,TGI,[12],3750 nM
same,GI50,[13],349 nM
same,TGI,[13],1220 nM
same,GI50,[14],1080 nM
same,TGI,[14],2570 nM
same,GI50,[15],517 nM
same,TGI,[15],1920 nM
same,GI50,[16],437 nM
same,TGI,[16],1670 nM
same,GI50,[17],559 nM
same,TGI,[17],2310 nM
same,GI50,[18],385 nM
same,TGI,[18],1310 nM
same,GI50,[19],499 nM
same,TGI,[19],1700 nM
same,GI50,[20],1100 nM
same,TGI,[20],8560 nM
same,GI50,[21],1130 nM
same,TGI,[21],4420 nM
same,GI50,[22],1320 nM
same,TGI,[22],2770 nM
same,GI50,[23],1620 nM
same,TGI,[23],3950 nM
same,GI50,[24],475 nM
same,TGI,[24],1780 nM
same,GI50,[25],1100 nM
same,TGI,[25],2700 nM
same,GI50,[26],1100 nM
same,TGI,[26],9580 nM
same,GI50,[27],1200 nM
same,TGI,[27],7310 nM
same,GI50,[28],726 nM
same,TGI,[28],4400 nM
same,GI50,[29],1220 nM
same,TGI,[29],4350 nM
same,GI50,[30],562 nM
same,TGI,[30],2340 nM
same,GI50,[31],450 nM
same,TGI,[31],2000 nM
same,GI50,[32],434 nM
same,TGI,[32],1720 nM
same,GI50,[33],1240 nM
same,TGI,[33],3810 nM
same,GI50,[34],1230 nM
same,TGI,[34],4500 nM
same,GI50,[35],1400 nM
same,TGI,[35],3250 nM
same,GI50,[36],1380 nM
same,TGI,[36],7130 nM
same,GI50,[37],1210 nM
same,TGI,[37],11100 nM
same,GI50,[38],509 nM
same,TGI,[38],1880 nM
same,GI50,[39],365 nM
same,TGI,[39],912 nM
same,GI50,[40],288 nM
same,TGI,[40],1210 nM
same,GI50,[41],722 nM
same,TGI,[41],11600 nM
same,GI50,[42],318 nM
same,TGI,[42],1190 nM
same,GI50,[43],137 nM
same,TGI,[43],287 nM
same,GI50,[44],355 nM
same,TGI,[44],9120 nM
same,GI50,[45],624 nM
same,TGI,[45],2330 nM
same,GI50,[46],226 nM
same,TGI,[46],501 nM
same,GI50,[47],38 nM
same,TGI,[47],126 nM
same,GI50,[48],1020 nM
same,TGI,[48],2770 nM
same,GI50,[49],677 nM
same,TGI,[49],2150 nM
same,GI50,[50],1680 nM
same,TGI,[50],3070 nM
same,GI50,[51],1630 nM
same,TGI,[51],14300 nM
same,GI50,[52],536 nM
same,TGI,[52],1800 nM
same,GI50,[53],927 nM
same,TGI,[53],3260 nM
same,GI50,[54],1070 nM
same,TGI,[54],2400 nM
same,GI50,[55],632 nM
same,TGI,[55],10900 nM
same,GI50,[56],430 nM
same,TGI,[56],1620 nM
same,GI50,[57],728 nM
same,TGI,[57],3490 nM
same,GI50,[58],1070 nM
same,TGI,[58],4240 nM
